Assay results published in ChEMBL document CHEMBL5149985, “Discovery of cytotoxic natural products from Red Sea sponges: Structure and synthesis” (Eur J Med Chem, 2021).
Each block holds one compound with its values, some of them ahead of it.

How the values were obtained:
BT-474 = assay: Anticancer activity against human BT-474 cells assessed as cell growth inhibition incubated for 48 hrs by MTT assay; type: functional, cell-based; details: BT-474, 48 h
MCF7 [1] = assay: Anticancer activity against human MCF7 cells assessed as inhibition of cell growth; type: functional, cell-based
HepG2 [2] = assay: Anticancer activity against human HepG2 cells assessed as inhibition of cell growth; type: functional, cell-based
HCT-116 = assay: cells; details: Homo sapiens
Description: Anticancer activity against human HCT-116 cells assessed as inhibition of cell growth by MTT assay

HepG2 [3] = assay: cells; details: Homo sapiens
Description: Anticancer activity against human HepG2 cells assessed as inhibition of cell growth by MTT assay

MCF7 [4] = assay: Anticancer activity against human MCF7 cells assessed as inhibition of cell growth by MTT assay; type: functional, cell-based
P388 [5] = assay: Anticancer activity against mouse P388 cells assessed as reduction in cell growth; type: functional, cell-based
HT-29 = assay: Anticancer activity against human HT-29 cells assessed as cell growth inhibition; type: functional, cell-based
P388 [6] = assay: Anticancer activity against mouse P388 cells assessed as cell growth inhibition; type: functional, cell-based
A549 = assay: Anticancer activity against human A549 cells assessed as cell growth inhibition; type: functional, cell-based

Structure (SMILES): [O-][N+]12CCC[C@]3(O)CCCCCC[C@@H]4CCN5CCC[C@@H](CCCCCC[C@H](CC1)O[C@@H]32)[C@@H]5O4 (some centres undefined)
IC50 (BT-474): 29500 nM

Structure (SMILES): CCCCCCCCCCCCCCCCCCCCC[C@@H](O)[C@@H](O)[C@H](CO)NC(=O)[C@H](O)CCCCCCCCCCCCCCCC
IC50 (MCF7 [1]): 26800 nM
IC50 (HepG2 [2]): 24700 nM

Structure (SMILES): C[C@@H]1CN2CCC[C@H]3CCCCCC[C@H]4CCN5CCC[C@@](O)(CCCCCC[C@@H]1O[C@H]32)[C@H]5O4 [XESTOSPONGIN B]
IC50 (BT-474): 52500 nM

Structure (SMILES): CC(=O)O[C@H]1C[C@@H]2[C@@]3(C)CCCC(C)(C)[C@@H]3CC[C@@]2(C)[C@@H]2CC=C(C(C)=O)[C@@H]3[C@H](O)C[C@@]132
IC50 (HCT-116): 0.6 nM
IC50 (HepG2 [3]): 4.7 nM
IC50 (MCF7 [4]): 2.4 nM

Structure (SMILES): CCCCCCCCCCCCC(=O)N[C@@H](CO)[C@H](O)[C@H](O)CCCCCCCCCC
IC50 (MCF7 [1]): > 200000 nM
IC50 (HepG2 [2]): 107000 nM

Structure (SMILES): CC(=O)Oc1c(O)ccc(O)c1C[C@]1(C)[C@@H](C)CC[C@]2(C)C(C)=CCC[C@@H]12
IC50 (P388 [5]): < 1.6 nM

Structure (SMILES): CC1=CCC[C@H]2[C@](C)(CC3=C(O)C(=O)C=C(O)C3=O)[C@@H](C)CC[C@]12C
IC50 (P388 [5]): 3.6 nM

Structure (SMILES): CC(=O)O[C@H]1C[C@@H]2[C@@]3(C)CCCC(C)(C)[C@@H]3CC[C@@]2(C)[C@@H]2CC=C(C(C)=O)[C@@H]3[C@@H](O)C[C@@]132
IC50 (HCT-116): 1.7 nM
IC50 (HepG2 [3]): 4.7 nM
IC50 (MCF7 [4]): 1.3 nM

Structure (SMILES): COC1=CC(=O)C(C[C@]2(C)[C@@H](C)CC[C@]3(C)C(C)=CCC[C@@H]23)=C(O)C1=O
IC50 (P388 [5]): > 54 nM

Structure (SMILES): CC(=O)OC1=C(C[C@]2(C)[C@@H](C)CC[C@]3(C)C(C)=CCC[C@@H]23)C(=O)C=CC1=O
IC50 (P388 [5]): 30 nM

Structure (SMILES): [O-][N+]12CCC[C@]3(O)CCCCCC[C@@H]4CCN5CCC[C@](O)(CCCCCC[C@H](CC1)O[C@@H]32)[C@@H]5O4 (some centres undefined)
IC50 (BT-474): 35600 nM

Structure (SMILES): C=C1CCCC(C)(C)C1(O)CCC[C@@]1(C)CC[C@@H]([C@H](C)C(=O)OC)OO1 (some centres undefined)
IC50 (HT-29): ≥ 1 µg/mL
IC50 (P388 [6]): ≥ 1 µg/mL
IC50 (A549): ≥ 1 µg/mL

Structure (SMILES): C/C1=C/C(=O)O[C@@H]2C[C@@H](CC[C@H](C)/C=C\CC1)O[C@@](O)([C@@H]1CSC(=O)N1)C2 [LATRUNCULIN B]
IC50 (HepG2 [2]): 19300 nM

Structure (SMILES): C/C1=C/C(=O)O[C@@H]2C[C@@H](CC[C@H](C)/C=C\CC1)O[C@@](O)([C@@H]1CS(=O)(=O)C(=O)N1O)C2
IC50 (HepG2 [2]): 16300 nM

Structure (SMILES): O[C@]12CCCCCC[C@@H]3CCN4CCC[C@@H](CCCCCC[C@@H]5CCN(CCC1)[C@H]2O5)[C@@H]4O3
IC50 (BT-474): 9300 nM

More lines, now with the values ahead:

IC50 (MCF7 [1]): 11700 nM
Structure (SMILES): C#C/C=C\CCCCC#CC#CCCCCCC#CCO

IC50 (HCT-116): 2.7 nM
IC50 (HepG2 [3]): 2.6 nM
IC50 (MCF7 [4]): 4.6 nM
Structure (SMILES): CC(=O)O[C@H]1C[C@H]2[C@@](C)(CCC3C(C)(C)CCC[C@@]32C)[C@@H]2C[C@@H](OC(C)=O)C(C(C)=O)=C[C@@]12C (some centres undefined)

IC50 (HCT-116): 1.7 nM
IC50 (HepG2 [3]): 3.3 nM
IC50 (MCF7 [4]): 4 nM
Structure (SMILES): CC[C@@]1(C)CCC[C@]2(C)[C@H]3C[C@H](OC(C)=O)[C@]4(C)[C@H]5CO[C@](C)(O)C5CC[C@H]4[C@]3(C)CC[C@@H]12 (some centres undefined)

IC50 (HCT-116): 1.3 nM
IC50 (HepG2 [3]): 2.9 nM
IC50 (MCF7 [4]): 4.8 nM
Structure (SMILES): CC[C@@]1(C)CCC[C@]2(C)[C@H]3C[C@H](OC(C)=O)[C@]4(C)C=C(C(C)=O)[C@H](OC(C)=O)C[C@H]4[C@]3(C)CC[C@@H]12

IC50 (HCT-116): 2.9 nM
IC50 (HepG2 [3]): 3.8 nM
IC50 (MCF7 [4]): 2.9 nM
Structure (SMILES): CC[C@@]1(C)CCC[C@]2(C)[C@H]3C[C@H](OC(C)=O)[C@]45C[C@@H](O)[C@H]4C(C(C)=O)=CC[C@H]5[C@]3(C)CC[C@@H]12

IC50 (P388 [5]): 1.8 nM
Structure (SMILES): CC1=CCC[C@H]2[C@](C)(CC3=CC(=O)C=C(O)C3=O)[C@@H](C)CC[C@]12C

IC50 (MCF7 [1]): 29800 nM
IC50 (HepG2 [2]): 21300 nM
Structure (SMILES): CCCCCCCC/C=C\CCCCCCC[C@@H](O)C(=O)N[C@@H](CO)[C@H](O)[C@H](O)CCCCCCCCCCCCCCCCCCC
